Data as given in patent US20070049564A1 (Wyeth, priority 2005, published 2007).
Converted amounts (≈) assume the structure as drawn. Read-outs that look alike come from different tables or passages of the source.

What was measured:
E. coli GC 2270 = assay: MIC, broth microdilution; details: Escherichia coli, GC2270, E. coli GC 2270
E. faecalis GC 2242 = assay: MIC, broth microdilution; details: Enterococcus faecalis, GC2242, E. faecalis GC 2242
E. faecium GC 4556 = assay: MIC, broth microdilution; details: Enterococcus faecium, GC4556, E. faecium GC 4556
S. agalactiae GC 4564 = assay: MIC, broth microdilution; details: Streptococcus agalactiae, GC4564, S. agalactiae GC 4564
S. aureus GC 6335 = assay: MIC, broth microdilution; details: Staphylococcus aureus, GC6335, S. aureus GC 6335
E. coli GC 2232 = assay: MIC, broth microdilution; details: Escherichia coli, GC2232, E. coli GC 2232
E. coli GC 4559 = assay: MIC, broth microdilution; details: Escherichia coli, GC4559, E. coli GC 4559
E. coli GC 2271 = assay: MIC, broth microdilution; details: Escherichia coli, GC2271, E. coli GC 2271
S. typhimurium GC 2172 = assay: MIC, broth microdilution; details: Salmonella enterica, TYPHIMURIUM, S. typhimurium GC 2172
P. aeruginosa GC 2214 = assay: MIC, broth microdilution; details: Pseudomonas aeruginosa, GC2214, P. aeruginosa GC 2214
E. coli GC 3226 = assay: MIC, broth microdilution; details: Escherichia coli, GC3226, E. coli GC 3226
E. faecalis GC 2267 = assay: MIC, broth microdilution; details: Enterococcus faecalis, GC2267, E. faecalis GC 2267
S. pneumoniae* GC 4465 = assay: MIC, broth microdilution; details: Streptococcus pneumoniae, S. pneumoniae* GC 4465
E. coli GC 2203 = assay: MIC, broth microdilution; details: Escherichia coli, GC2203, E. coli GC 2203
S. aureus GC 2216 = assay: MIC, broth microdilution; details: Staphylococcus aureus, GC2216, S. aureus GC 2216
Staph. aureus Smith = assay: In vivo activity (oral, iv; ED50) against Staph. aureus Smith in mice
Procedure: Representative examples of compounds of Formula I were tested for the oral efficacy using S. aureus Smith in mice.

E. coli GC 2231 = assay: MIC, broth microdilution; details: Escherichia coli, GC2231, E. coli GC 2231
Procedure: Antimicrobial susceptibility testing. The in vitro activities of the antibiotics are determined by the broth microdilution method as recommended by the National Committee for Clinical Laboratory Standards (NCCLS) (1). Mueller-Hinton II broth (MHBII)(BBL Cockeysville, Md.) is the medium employed in the testing procedures. Microtiter plates containing serial dilutions of each antimicrobial agent are inoculated with each organism to yield the appropriate density (10^5 CFU/ml) in a 100 μl final volume. The plates are incubated for 18-22 hours at 35° C. in ambient air.
Representative compounds were first incubated in mouse serum for an hour prior to the in vitro testing against a panel of selected gram-positive and gram-negative bacteria strains. All compounds were also pre-incubated in water for an hour prior to testing as control.

E. coli GC 2235 = assay: MIC, broth microdilution; details: Escherichia coli, GC2235, E. coli GC 2235
S. aureus GC 6467 = assay: MIC, broth microdilution; details: Staphylococcus aureus, GC6467, S. aureus GC 6467
E. coli GC 4560 = assay: MIC, broth microdilution; details: Escherichia coli, GC4560, E. coli GC 4560
[1] = Staphylococcus aureus, in Mus musculus, po, read-out: ED50 Staph Smith SOD
[2] = iv, read-out: ED50 Staph Smith SIV

Structure (SMILES) | MIC (E. coli GC 2270; Mouse Serum pre-incubation) | MIC (E. coli GC 2270; Water pre-incubation) | MIC (E. faecalis GC 2242; Mouse Serum pre-incubation) | MIC (E. faecalis GC 2242; Water pre-incubation) | MIC (E. faecium GC 4556; Mouse Serum pre-incubation) | MIC (E. faecium GC 4556; Water pre-incubation) | MIC (S. agalactiae GC 4564; Mouse Serum pre-incubation) | MIC (S. agalactiae GC 4564; Water pre-incubation) | MIC (S. aureus GC 6335; Mouse Serum pre-incubation) | MIC (S. aureus GC 6335; Water pre-incubation) | MIC (E. coli GC 2232; Mouse Serum pre-incubation) | MIC (E. coli GC 2232; Water pre-incubation) | MIC (E. coli GC 4559; Mouse Serum pre-incubation) | MIC (E. coli GC 4559; Water pre-incubation) | MIC (E. coli GC 2271; Mouse Serum pre-incubation) | MIC (E. coli GC 2271; Water pre-incubation) | MIC (S. typhimurium GC 2172; Mouse Serum pre-incubation) | MIC (S. typhimurium GC 2172; Water pre-incubation) | MIC (P. aeruginosa GC 2214; Mouse Serum pre-incubation) | MIC (P. aeruginosa GC 2214; Water pre-incubation) | also measured
CCCN(CC(=O)Nc1cc(N(C)C)c2c(c1O)C(=O)C1=C(O)[C@]3(O)C(=O)C(C(N)=O)=C(O)[C@@H](N(C)C)[C@@H]3C[C@@H]1C2)C(=O)OCOC(=O)C(C)(C)C [Example 9, ({[(2-{[(5aR,6aS,7S,10aS)-9-(aminocarbonyl)-4,7-bis(dimethylamino)-1,8,10a,11-tetrahydroxy-10,12-dioxo-5,5a,6,6a,7,10,10a,12-octahydrotetracen-2-yl]amino}-2-oxoethyl)(propyl)amino]carbonyl}oxy)methyl pivalate] | 0.5 µg/mL (≈ 0.685 µM) | 4 µg/mL (≈ 5.48 µM) | 0.5 µg/mL (≈ 0.685 µM) | 1 µg/mL (≈ 1.37 µM) | 0.25 µg/mL (≈ 0.343 µM) | 0.5 µg/mL (≈ 0.685 µM) | 0.12 µg/mL (≈ 0.164 µM) | 0.25 µg/mL (≈ 0.343 µM) | 0.25 µg/mL (≈ 0.343 µM) | 0.5 µg/mL (≈ 0.685 µM) | 1 µg/mL (≈ 1.37 µM) | 8 µg/mL (≈ 11 µM) | 1 µg/mL (≈ 1.37 µM) | 8 µg/mL (≈ 11 µM) | 0.5 µg/mL (≈ 0.685 µM) | 8 µg/mL (≈ 11 µM) | 8 µg/mL (≈ 11 µM) | > 64 µg/mL | 16 µg/mL (≈ 21.9 µM) | > 64 µg/mL | MIC (E. coli GC 3226; Mouse Serum pre-incubation): 2 µg/mL (≈ 2.74 µM); MIC (E. coli GC 3226; Water pre-incubation): 16 µg/mL (≈ 21.9 µM); MIC (E. faecalis GC 2267; Mouse Serum pre-incubation): 1 µg/mL (≈ 1.37 µM); MIC (E. faecalis GC 2267; Water pre-incubation): 2 µg/mL (≈ 2.74 µM); MIC (S. pneumoniae* GC 4465; Mouse Serum pre-incubation): < 0.06 µg/mL; MIC (S. pneumoniae* GC 4465; Water pre-incubation): < 0.06 µg/mL; MIC (E. coli GC 2203; Mouse Serum pre-incubation): 0.5 µg/mL (≈ 0.685 µM); MIC (E. coli GC 2203; Water pre-incubation): 4 µg/mL (≈ 5.48 µM); MIC (S. aureus GC 2216; Mouse Serum pre-incubation): 0.25 µg/mL (≈ 0.343 µM); MIC (S. aureus GC 2216; Water pre-incubation): 0.5 µg/mL (≈ 0.685 µM); ED50 (Staph. aureus Smith; [1]): 11.3 mg/kg; ED50 (Staph. aureus Smith; [2]): 0.32 mg/kg; MIC (E. coli GC 2231; Mouse Serum pre-incubation): 2 µg/mL (≈ 2.74 µM); MIC (E. coli GC 2231; Water pre-incubation): 64 µg/mL (≈ 87.7 µM); MIC (E. coli GC 2235; Mouse Serum pre-incubation): 0.5 µg/mL (≈ 0.685 µM); MIC (E. coli GC 2235; Water pre-incubation): 4 µg/mL (≈ 5.48 µM); MIC (S. aureus GC 6467; Mouse Serum pre-incubation): 1 µg/mL (≈ 1.37 µM); MIC (S. aureus GC 6467; Water pre-incubation): 2 µg/mL (≈ 2.74 µM); MIC (E. coli GC 4560; Mouse Serum pre-incubation): 0.25 µg/mL (≈ 0.343 µM); MIC (E. coli GC 4560; Water pre-incubation): 1 µg/mL (≈ 1.37 µM)
CCCN(CC(=O)Nc1cc(N(C)C)c2c(c1O)C(=O)C1=C(O)[C@]3(O)C(=O)C(C(N)=O)=C(O)[C@@H](N(C)C)[C@@H]3C[C@@H]1C2)C(=O)OCOC(=O)C(C)C [Example 10, ({[(2-{[(5aR,6aS,7S,10aS)-9-(aminocarbonyl)-4,7-bis(dimethylamino)-1,8,10a,11-tetrahydroxy-10,12-dioxo-5,5a,6,6a,7,10,10a,12-octahydrotetracen-2-yl]amino}-2-oxoethyl)(propyl)amino]carbonyl}oxy)methyl 2-methylpropanoate] | 0.5 µg/mL (≈ 0.699 µM) | 8 µg/mL (≈ 11.2 µM) | 0.25 µg/mL (≈ 0.349 µM) | 0.5 µg/mL (≈ 0.699 µM) | 0.25 µg/mL (≈ 0.349 µM) | 0.5 µg/mL (≈ 0.699 µM) | < 0.06 µg/mL | 0.12 µg/mL (≈ 0.168 µM) | 0.25 µg/mL (≈ 0.349 µM) | 0.5 µg/mL (≈ 0.699 µM) | 0.5 µg/mL (≈ 0.699 µM) | 8 µg/mL (≈ 11.2 µM) | 0.5 µg/mL (≈ 0.699 µM) | 16 µg/mL (≈ 22.4 µM) | 0.25 µg/mL (≈ 0.349 µM) | 8 µg/mL (≈ 11.2 µM) | 4 µg/mL (≈ 5.59 µM) | > 64 µg/mL | 16 µg/mL (≈ 22.4 µM) | > 64 µg/mL | MIC (E. coli GC 3226; Mouse Serum pre-incubation): 0.5 µg/mL (≈ 0.699 µM); MIC (E. coli GC 3226; Water pre-incubation): 16 µg/mL (≈ 22.4 µM); MIC (E. faecalis GC 2267; Mouse Serum pre-incubation): 1 µg/mL (≈ 1.4 µM); MIC (E. faecalis GC 2267; Water pre-incubation): 2 µg/mL (≈ 2.79 µM); MIC (S. pneumoniae* GC 4465; Mouse Serum pre-incubation): < 0.06 µg/mL; MIC (S. pneumoniae* GC 4465; Water pre-incubation): < 0.06 µg/mL; MIC (E. coli GC 2203; Mouse Serum pre-incubation): 0.5 µg/mL (≈ 0.699 µM); MIC (E. coli GC 2203; Water pre-incubation): 8 µg/mL (≈ 11.2 µM); MIC (S. aureus GC 2216; Mouse Serum pre-incubation): 0.25 µg/mL (≈ 0.349 µM); MIC (S. aureus GC 2216; Water pre-incubation): 0.5 µg/mL (≈ 0.699 µM); ED50 (Staph. aureus Smith; [1]): 13.6 mg/kg; ED50 (Staph. aureus Smith; [2]): 0.36 mg/kg; MIC (E. coli GC 2231; Mouse Serum pre-incubation): 2 µg/mL (≈ 2.79 µM); MIC (E. coli GC 2231; Water pre-incubation): 32 µg/mL (≈ 44.7 µM); MIC (E. coli GC 2235; Mouse Serum pre-incubation): 0.25 µg/mL (≈ 0.349 µM); MIC (E. coli GC 2235; Water pre-incubation): 4 µg/mL (≈ 5.59 µM); MIC (S. aureus GC 6467; Mouse Serum pre-incubation): 2 µg/mL (≈ 2.79 µM); MIC (S. aureus GC 6467; Water pre-incubation): 2 µg/mL (≈ 2.79 µM); MIC (E. coli GC 4560; Mouse Serum pre-incubation): 0.12 µg/mL (≈ 0.168 µM); MIC (E. coli GC 4560; Water pre-incubation): 0.12 µg/mL (≈ 0.168 µM)
